Measured values taken from PubChem BioAssay (NCI).
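Five concentrations, 48 hours, 96-well plates. GI50 marks 50% less growth. TGI denotes the concentration required for complete inhibition of growth.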

Legend:
Assay in all cases: NCI-60 cell line screen, 48 h
HOP-92 NSCLC = tested on: HOP-92 NSCLC
SNB-75 CNS = tested on: SNB-75 CNS
MDA-MB-231 breast = tested on: MDA-MB-231 breast
OVCAR-8 ovarian = tested on: OVCAR-8 ovarian
NCI-H226 lung = tested on: NCI-H226 lung
NCI/ADR-RES ovarian = tested on: NCI/ADR-RES ovarian
ACHN renal = tested on: ACHN renal
COLO 205 colon = tested on: COLO 205 colon
RPMI-8226 leukemia = tested on: RPMI-8226 leukemia
SF-268 CNS = tested on: SF-268 CNS

Structure (SMILES) | TGI (HOP-92 NSCLC) [µM] | TGI (SNB-75 CNS) [µM] | TGI (MDA-MB-231 breast) [µM] | TGI (OVCAR-8 ovarian) [µM] | TGI (NCI-H226 lung) [µM] | TGI (NCI/ADR-RES ovarian) [µM] | TGI (ACHN renal) [µM] | TGI (COLO 205 colon) [µM] | TGI (RPMI-8226 leukemia) [µM] | TGI (SF-268 CNS) [µM] | GI50 (HOP-92 NSCLC) [µM] | GI50 (SNB-75 CNS) [µM] | GI50 (MDA-MB-231 breast) [µM] | GI50 (OVCAR-8 ovarian) [µM] | GI50 (SF-268 CNS) [µM] | GI50 (NCI-H226 lung) [µM] | GI50 (NCI/ADR-RES ovarian) [µM] | GI50 (ACHN renal) [µM] | GI50 (RPMI-8226 leukemia) [µM]
C=CCn1c(=O)c(C(=O)Nc2nc(C34CC5CC(CC(C5)C3)C4)cs2)c(O)c2ccccc21 | 84.4 | > 100 | > 100 | > 100 | > 100 | 76.6 | > 100 | > 100 | 87.5 | – | – | – | – | – | – | – | – | – | –
Cc1ccc(C2=CC(=O)OC(C[P+](c3ccccc3)(c3ccccc3)c3ccccc3)(c3ccccc3)O2)cc1 (configuration not stated) | – | 36.2 | 82.3 | 51.1 | 60.4 | 40.2 | 39.8 | 28.3 | 46.1 | 38.2 | – | – | – | – | – | – | – | – | –
NC(=O)c1c(NC(=O)c2ccccc2)sc2c1CCC(=O)C2 | 4.99 | 6.05 | 22.9 | > 100 | 9.1 | 10.4 | 2.48 | – | 0.751 | > 100 | 1.42 | 1.23 | 2.3 | 1.33 | 2.81 | 2.2 | 1.28 | 0.698 | 0.248
O=C(CCn1ccnc1[N+](=O)[O-])NCCCn1ccnc1[N+](=O)[O-] | – | > 100 | > 100 | > 100 | > 100 | > 100 | > 100 | > 100 | > 100 | > 100 | – | – | – | – | – | – | – | – | –
C[N+](C)([O-])CCOc1cc2c(c3ccccc13)-c1ccccc1C2=O | > 68.5 | 53.2 | – | > 93.1 | 78.8 | > 100 | – | 32.3 | 44.1 | 36.4 | – | – | – | – | – | – | – | – | –
CCCCCC#CCOC(=O)C(=[N+]=[N-])P(=O)(c1ccccc1)c1ccccc1 | > 10 | > 10 | > 10 | > 10 | > 10 | – | > 10 | – | > 10 | > 10 | – | – | – | – | – | – | – | – | –
O=C1OCC/C1=N/O | > 100 | > 100 | – | > 100 | > 100 | – | > 100 | > 100 | > 100 | > 100 | – | – | – | – | – | – | – | – | –
COc1cc(O)c2c(c1)C(=O)c1cc3c(c(O)c1C2=O)C(OC1OC(C)C(OC)C(O)C1OC)C(OC)C(C)(O)C3=O (configuration not stated) | – | 16 | 27.3 | 10.8 | 9.54 | – | 12.8 | 13.3 | 4.6 | 36.3 | – | – | – | – | – | – | – | – | –
COc1ccc(C2c3cn[nH]c3CC3CCCCC32)cc1 (configuration not stated) | – | 27.2 | 30.4 | 35.6 | 36.9 | – | 33.1 | – | 73.2 | 39.6 | – | – | – | – | – | – | – | – | –
Cc1c(O)nc(-n2[nH]c3c(c2=O)CCCC3)[nH]c1=O | > 100 | – | > 100 | > 100 | > 100 | > 100 | > 100 | > 100 | > 100 | > 100 | – | – | – | – | – | – | – | – | –
C/C(=N\N=C1/C(=O)OC(c2ccccc2)=C1C(=O)c1ccccc1)c1ccc([N+](=O)[O-])cc1 | 83.3 | – | > 100 | > 100 | 79.4 | > 100 | > 100 | > 100 | 48.9 | > 100 | – | – | – | – | – | – | – | – | –
